Where “and” joins values, the source holds several entries; their conditions need not be identical. Equal entries are not always repeated. Where two headings read alike, the source gives them in different places.
How the values were obtained:
[1] = test system: HIV-1 infection of TZM-bl cells; assay: HIV-1 infectivity enhancement assay, β-galactosidase luminescence; assay type: cell-based; conditions: for Log10 Inf. rel. to EF-C: log10 of HIV-1 infection of TZM-bl cells relative to EF-C, Fig S15 source data, asymmetric std dev errors; for Rel-to EFC / n-fold to virus: Fig S8 panels B, D
[2] = β-sheet content by ATR-FT-IR; assay type: physicochemical
Procedure, shortened: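 Measurements on freeze-dried PNF powders used a diamond ATR element, 64 scans each, with β-sheet fraction derived as previously reported. CR reflects loss of fluorescamine-reactive monomer after 3 kDa ultrafiltration, averaged over triplicates.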

[3] = Zeta-potential measurement; assay type: physicochemical; conditions: for Zeta-pot. / mV: zeta potential of peptide, Fig S15 source data
Procedure, shortened: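 PBS pH 7.4, 1 mg/mL peptide (DMSO stock), 1 d RT aggregation; diluted in 1 mM KCl pre-read; mobility → zeta (Smoluchowski); n = 3, 2 expts averaged.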

[4] = Turbidity, derived count rate of scattered light; assay type: physicochemical; conditions: for Zeta Count Rate / kcps / Count Rate: derived count rate of scattered light; for Log Count Rate: log of derived count rate; for Count Rate: turbidity
Procedure, shortened: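 One-day room-temperature aggregation at 1 mg/mL in PBS (pH 7.4) preceded measurement; samples then went into 1 mM KCl. Triplicates per sample, two independent experiments averaged.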

[5] = Feb2021, Log10 of infectivity relative to EF-C
[6] = Feb2021, n-fold infectivity relative to EF-C
[7] = Feb2021 run, infectivity n-fold relative to virus alone
[8] = Feb2021 run, log10 of infectivity relative to EF-C
[9] = Feb2021 run, n-fold infectivity relative to EF-C
[10] = infectivity class (low / medium / high) of each library peptide, main list in c1-c6, same classes repeated in sub-lists of sequences containing the hydrophobicity/charge patterns P+,H0,P+,H0,P0,H0,P0, P+,H0,P0,H0,P0,H0,P0, P+,H0,P0,H0
[11] = infectivity class (low / medium / high) of the peptide in the sequence-pattern analysis, Fig. S22-A4, class limits not given
[12] = mean, std deviation in next column
[13] = mean, std deviation in separate column
[14] = Feb2021, infectivity enhancement relative to EF-C
[15] = infectivity enhancement relative to EF-C
[16] = infectivity n-fold relative to virus alone
[17] = category derived from the zeta potential
[18] = Fig S8 panels A, C, asymmetric log errors
[19] = category 1 or 0 derived from the count rate, key not given

Substance	Log10 of Rel to EFC (Feb2021) [1, 5]	Rel-to EFC (Feb-2021) [1, 6]	n-fold to virus (Feb2021) [1, 7]	Log10 of Rel to EFC (Feb2021) [1, 8]	Rel-to EFC (Feb-2021) [1, 9]	infectivity [1, 10]	infectivity [1, 11]	Log10 Inf. rel. to EF-C [1]	FTIR ß-sheet content/ % [2] [%]	FTIR ß-sheet content/ % ([2]; ATR-FT-IR)	Zeta category ( +1 = if > 4 mV;-1 = if < -4 mV; 0 = -4mV to 4 mV) [3]	Zeta Pot. / mV ([3]; mean, Std Zeta in next column) [mV]	Zeta Pot. / mV ([3]; mean, Std in separate column) [mV]	Zeta-pot. / mV [3] [mV]	Zeta Count Rate / kcps [4, 12] [kcps]	Zeta Count Rate / kcps [4, 13] [kcps]	Rel-to EFC (Feb-2021) [1, 14]	Rel-to EFC [1, 15]	n-fold to virus [1, 16]	Zeta category ( +1 = if > 4 mV;-1 = if < -4 mV; 0 = -4mV to 4 mV) [3, 17]	also measured
CKFKFQFNMWQ [BL2]	0.06446	1.16	48.74	0.06446	1.16	high	high	0.06446	47.05	47% and 47.05%	1 (+1 = if > 4 mV)	17.03	17.03	17.03	142.5	142.5					n-fold to virus (Feb2021) ([1]; Feb2021, 1.3 µM value relative to virus only (0 µM)): 48.74; Rel-to EFC (Feb-2021) ([1]; Feb2021, n-fold enhancement relative to EF-C): 1.16; Absolute Infectivity / RLU /s (Feb2021) ([1]; Feb2021, unrounded values of the 1.3 µM column): 26320 RLU /s; Zeta category ( +1 = if > 4 mV;-1 = if < -4 mV; 0 = -4mV to 4 mV) ([3]; category from zeta potential): 1 (+1 = if > 4 mV); Zeta Count Rate Category ([4]; category 1/0, no key printed): 1; Zeta Count Rate Category ([4]; category 1 or 0 from count rate, key not given): 1
CKFKFQFW [TM72]	-0.05512					high	high	-0.05512		43%		15.2		15.2	29210.5		0.8808	0.8808	37.01	1 (+1 = if > 4 mV)	Log Count Rate [4, 18]: 4.466; Log Count Rate ([4]; Fig S8 panels B, D): 4.466; Count Rate ([4]; Fig S8 panels B, D): 29210.5; Zeta Count Rate Category [4, 19]: 1
CKFKQFF [CK15]	-2.171	0.00675	0.2836	-2.171	0.00675	low		-2.171	45.41	45.41%	1 (+1 = if > 4 mV)	11.56	11.56	11.56	2.567	2.567	0.00675	0.00675	0.2836	1 (+1 = if > 4 mV)	Absolute Infectivity / RLU /s (Feb2021) ([1]; Feb2021, figures match the 1.3 µM column): 260 RLU /s; n-fold to virus (Feb2021) ([1]; Feb2021, infectivity relative to virus only): 0.2836; Zeta Pot. / mV [3]: 11.56 mV; Log Count Rate [4, 18]: 0.4099; Log Count Rate ([4]; Fig S8 panels B, D): 0.4099; Count Rate ([4]; Fig S8 panels B, D): 2.57; Zeta Count Rate Category ([4]; category 1 / 0, no key given): 0; Zeta Count Rate Category [4, 19]: 0; Zeta Count Rate / kcps [4]: 2.567 kcps

— article PMC10447463, “Data-mining unveils structure–property–activity correlation of viral infectivity enhancing self-assembling peptides” (Nature Communications, 2023)
